Results published in ChEMBL document CHEMBL1201862, “PubChem BioAssay data set” (2004).
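Exposure lasted 48 hours, with cells grown in 96-well plates and compounds tested at five concentrations. GI50 marks 50% less growth.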 Active and inactive are the calls of the source. Rule as the data show it: active = GI50 up to about 1.1 µM and inactive = higher.

How the values were obtained:
Assay in all cases: inhibition of tumour cell growth, NCI panel, 48 h
HCC 2998 = test system: HCC 2998
SNB-19 = test system: SNB-19
M14 = test system: M14
MDA-N = test system: MDA-N
EKVX = test system: EKVX
NCI-H226 = test system: NCI-H226
OVCAR-8 = test system: OVCAR-8
ACHN = test system: ACHN
Hs-578T = test system: Hs-578T
SK-MEL-28 = test system: SK-MEL-28
MOLT-4 = test system: MOLT-4
OVCAR-3 = test system: OVCAR-3
U-251 = test system: U-251
RPMI-8226 = test system: RPMI-8226
HOP-62 = test system: HOP-62
T47D = test system: T47D
DU-145 = test system: DU-145
SR = test system: SR
SK-MEL-2 = test system: SK-MEL-2
MDA-MB-231 = test system: MDA-MB-231
Malme-3M = test system: Malme-3M
SN12C = test system: SN12C
UO-31 = test system: UO-31
HL-60 = test system: HL-60
NCI/ADR-RES = test system: NCI/ADR-RES
A549 = test system: A549
786-0 = test system: 786-0
NCI-H522 = test system: NCI-H522
CCRF-CEM = test system: CCRF-CEM
SF-539 = test system: SF-539
NCI-H460 = test system: NCI-H460
HCT-15 = test system: HCT-15
SW-620 = test system: SW-620
LOX IMVI = test system: LOX IMVI
K562 = test system: K562
OVCAR-5 = test system: OVCAR-5
BT-549 = test system: BT-549
HT-29 = test system: HT-29
SF-268 = test system: SF-268
UACC-257 = test system: UACC-257
MDA-MB-435 = test system: MDA-MB-435
PC-3 = test system: PC-3
COLO 205 = test system: COLO 205
KM12 = test system: KM12
A498 = test system: A498
OVCAR-4 = test system: OVCAR-4
NCI-H23 = test system: NCI-H23
TK-10 = test system: TK-10
SNB-75 = test system: SNB-75
SF-295 = test system: SF-295
MCF7 = test system: MCF7
HCT-116 = test system: HCT-116
IGROV-1 = test system: IGROV-1
SK-MEL-5 = test system: SK-MEL-5
SK-OV-3 = test system: SK-OV-3
CAKI-1 = test system: CAKI-1
UACC-62 = test system: UACC-62
HOP-92 = test system: HOP-92
RXF 393 = test system: RXF 393

Cc1nc(N)c(N2CCN([N+](=O)[O-])CC2)c(O)n1 was tested, and the GI50 (HCC 2998) was > 100 µM (inactive), the GI50 (SNB-19) was > 100 µM (inactive) and the GI50 (M14) was > 100 µM (inactive). The GI50 (MDA-N) was > 100 µM (inactive), the GI50 (EKVX) was > 100 µM (inactive) and the GI50 (NCI-H226) was > 100 µM (inactive). The GI50 (OVCAR-8) was > 100 µM (inactive), the GI50 (ACHN) was > 100 µM (inactive) and the GI50 (Hs-578T) was > 100 µM (inactive). For the same molecule, the GI50 (SK-MEL-28) was > 100 µM (inactive), the GI50 (MOLT-4) was > 100 µM (inactive) and the GI50 (OVCAR-3) was > 100 µM (inactive). The GI50 (U-251) was > 100 µM (inactive), the GI50 (RPMI-8226) was > 100 µM (inactive) and the GI50 (HOP-62) was > 100 µM (inactive). The GI50 (T47D) was > 100 µM (inactive), the GI50 (DU-145) was > 100 µM (inactive) and the GI50 (SR) was > 100 µM (inactive). For the same molecule, the GI50 (SK-MEL-2) was > 100 µM (inactive), the GI50 (MDA-MB-231) was > 100 µM (inactive) and the GI50 (Malme-3M) was > 100 µM (inactive). For the same molecule, the GI50 (SN12C) was > 100 µM (inactive), the GI50 (UO-31) was > 100 µM (inactive) and the GI50 (HL-60) was > 100 µM (inactive). For the same molecule, the GI50 (NCI/ADR-RES) was > 100 µM (inactive), the GI50 (A549) was > 100 µM (inactive) and the GI50 (786-0) was > 100 µM (inactive). For the same molecule, the GI50 (NCI-H522) was > 100 µM (inactive), the GI50 (CCRF-CEM) was > 100 µM (inactive) and the GI50 (SF-539) was > 100 µM (inactive). The GI50 (NCI-H460) was > 100 µM (inactive), the GI50 (HCT-15) was greater than 100 µM and the GI50 (SW-620) was > 100 µM (inactive). The GI50 (LOX IMVI) was > 100 µM (inactive), the GI50 (K562) was > 100 µM (inactive) and the GI50 (OVCAR-5) was > 100 µM (inactive). The GI50 (BT-549) was > 100 µM (inactive), the GI50 (HT-29) was > 100 µM (inactive) and the GI50 (SF-268) was > 100 µM (inactive). The GI50 (UACC-257) was > 100 µM (inactive), the GI50 (MDA-MB-435) was > 100 µM (inactive) and the GI50 (PC-3) was > 100 µM (inactive). For the same molecule, the GI50 (COLO 205) was > 100 µM (inactive), the GI50 (KM12) was > 100 µM (inactive) and the GI50 (A498) was > 100 µM (inactive). For the same molecule, the GI50 (OVCAR-4) was > 100 µM (inactive), the GI50 (NCI-H23) was > 100 µM (inactive) and the GI50 (TK-10) was > 100 µM (inactive). For the same molecule, the GI50 (SNB-75) was > 100 µM (inactive), the GI50 (SF-295) was > 100 µM (inactive) and the GI50 (MCF7) was > 100 µM (inactive). The GI50 (HCT-116) was > 100 µM (inactive).

For c1ccc(NNC2=NCCN2)cc1, the GI50 (IGROV-1) was > 100 µM (inactive), the GI50 (SNB-19) was > 100 µM (inactive) and the GI50 (M14) was > 100 µM (inactive). For the same molecule, the GI50 (MDA-N) was > 100 µM (inactive), the GI50 (EKVX) was > 100 µM (inactive) and the GI50 (NCI-H226) was > 100 µM (inactive). For the same molecule, the GI50 (OVCAR-8) was > 100 µM (inactive), the GI50 (ACHN) was > 100 µM (inactive) and the GI50 (SK-MEL-5) was > 100 µM (inactive). The GI50 (Hs-578T) was > 100 µM (inactive), the GI50 (SK-MEL-28) was > 100 µM (inactive) and the GI50 (SK-OV-3) was > 100 µM (inactive). The GI50 (MOLT-4) was > 100 µM (inactive), the GI50 (OVCAR-3) was > 100 µM (inactive) and the GI50 (CAKI-1) was > 100 µM (inactive). The GI50 (UACC-62) was > 100 µM (inactive), the GI50 (U-251) was > 100 µM (inactive) and the GI50 (RPMI-8226) was > 100 µM (inactive). For the same molecule, the GI50 (HOP-62) was > 100 µM (inactive), the GI50 (T47D) was > 100 µM (inactive) and the GI50 (DU-145) was > 100 µM (inactive). For the same molecule, the GI50 (SR) was > 100 µM (inactive), the GI50 (SK-MEL-2) was > 100 µM (inactive) and the GI50 (MDA-MB-231) was > 100 µM (inactive). The GI50 (SN12C) was > 100 µM (inactive), the GI50 (UO-31) was > 100 µM (inactive) and the GI50 (HL-60) was > 100 µM (inactive). For the same molecule, the GI50 (NCI/ADR-RES) was > 100 µM (inactive), the GI50 (A549) was > 100 µM (inactive) and the GI50 (786-0) was > 100 µM (inactive). For the same molecule, the GI50 (NCI-H522) was > 100 µM (inactive), the GI50 (CCRF-CEM) was > 100 µM (inactive) and the GI50 (SF-539) was > 100 µM (inactive). For the same molecule, the GI50 (NCI-H460) was > 100 µM (inactive), the GI50 (HCT-15) was greater than 100 µM and the GI50 (SW-620) was > 100 µM (inactive). For the same molecule, the GI50 (LOX IMVI) was > 100 µM (inactive), the GI50 (K562) was > 100 µM (inactive) and the GI50 (OVCAR-5) was > 100 µM (inactive). For the same molecule, the GI50 (BT-549) was > 100 µM (inactive), the GI50 (HT-29) was > 100 µM (inactive) and the GI50 (SF-268) was > 100 µM (inactive). For the same molecule, the GI50 (UACC-257) was > 100 µM (inactive), the GI50 (MDA-MB-435) was > 100 µM (inactive) and the GI50 (PC-3) was > 100 µM (inactive). For the same molecule, the GI50 (COLO 205) was > 100 µM (inactive), the GI50 (KM12) was > 100 µM (inactive) and the GI50 (A498) was > 100 µM (inactive). For the same molecule, the GI50 (OVCAR-4) was > 100 µM (inactive), the GI50 (NCI-H23) was > 100 µM (inactive) and the GI50 (TK-10) was > 100 µM (inactive). The GI50 (SNB-75) was > 100 µM (inactive), the GI50 (SF-295) was 2.75 µM (inactive) and the GI50 (MCF7) was > 100 µM (inactive). The GI50 (HCT-116) was > 100 µM (inactive).

In the case of CN1C(=O)C(O)C[C@@H]1c1ccccc1 (stereo partly drawn), the GI50 (IGROV-1) is reported as > 100 µM (inactive), the GI50 (HCC 2998) is reported as > 100 µM (inactive) and the GI50 (SNB-19) is reported as > 100 µM (inactive). For the same molecule, the GI50 (M14) was > 100 µM (inactive), the GI50 (MDA-N) was > 100 µM (inactive) and the GI50 (EKVX) was > 100 µM (inactive). For the same molecule, the GI50 (NCI-H226) was > 100 µM (inactive), the GI50 (OVCAR-8) was > 100 µM (inactive) and the GI50 (ACHN) was > 100 µM (inactive). For the same molecule, the GI50 (SK-MEL-5) was > 100 µM (inactive), the GI50 (Hs-578T) was > 100 µM (inactive) and the GI50 (SK-MEL-28) was > 100 µM (inactive). The GI50 (SK-OV-3) was > 100 µM (inactive), the GI50 (MOLT-4) was > 100 µM (inactive) and the GI50 (OVCAR-3) was > 100 µM (inactive). For the same molecule, the GI50 (CAKI-1) was > 100 µM (inactive), the GI50 (UACC-62) was > 100 µM (inactive) and the GI50 (U-251) was > 100 µM (inactive). For the same molecule, the GI50 (RPMI-8226) was > 100 µM (inactive), the GI50 (HOP-62) was > 100 µM (inactive) and the GI50 (T47D) was > 100 µM (inactive). For the same molecule, the GI50 (DU-145) was > 100 µM (inactive), the GI50 (SR) was > 100 µM (inactive) and the GI50 (SK-MEL-2) was > 100 µM (inactive). The GI50 (MDA-MB-231) was > 100 µM (inactive), the GI50 (Malme-3M) was > 100 µM (inactive) and the GI50 (SN12C) was > 100 µM (inactive). For the same molecule, the GI50 (UO-31) was > 100 µM (inactive), the GI50 (HOP-92) was > 100 µM (inactive) and the GI50 (HL-60) was > 100 µM (inactive). The GI50 (NCI/ADR-RES) was > 100 µM (inactive), the GI50 (A549) was > 100 µM (inactive) and the GI50 (786-0) was > 100 µM (inactive). The GI50 (NCI-H522) was > 100 µM (inactive), the GI50 (CCRF-CEM) was > 100 µM (inactive) and the GI50 (SF-539) was > 100 µM (inactive). The GI50 (HCT-15) was greater than 100 µM, the GI50 (SW-620) was > 100 µM (inactive) and the GI50 (LOX IMVI) was > 100 µM (inactive). For the same molecule, the GI50 (OVCAR-5) was > 100 µM (inactive), the GI50 (BT-549) was > 100 µM (inactive) and the GI50 (HT-29) was > 100 µM (inactive). The GI50 (SF-268) was > 100 µM (inactive), the GI50 (UACC-257) was > 100 µM (inactive) and the GI50 (MDA-MB-435) was > 100 µM (inactive). For the same molecule, the GI50 (PC-3) was > 100 µM (inactive), the GI50 (COLO 205) was > 100 µM (inactive) and the GI50 (KM12) was > 100 µM (inactive). For the same molecule, the GI50 (OVCAR-4) was > 100 µM (inactive), the GI50 (NCI-H23) was > 100 µM (inactive) and the GI50 (TK-10) was > 100 µM (inactive). For the same molecule, the GI50 (SNB-75) was > 100 µM (inactive), the GI50 (RXF 393) was > 100 µM (inactive) and the GI50 (SF-295) was > 100 µM (inactive). The GI50 (MCF7) was > 100 µM (inactive) and the GI50 (HCT-116) was > 100 µM (inactive).
